Results from publication PMC4091617 (Chemical communications (Cambridge, England), 2011).

Biological target: T1, DhpI (Streptomyces luridus, UniProt D7PC21)
T1 sequence (D7PC21 1-218): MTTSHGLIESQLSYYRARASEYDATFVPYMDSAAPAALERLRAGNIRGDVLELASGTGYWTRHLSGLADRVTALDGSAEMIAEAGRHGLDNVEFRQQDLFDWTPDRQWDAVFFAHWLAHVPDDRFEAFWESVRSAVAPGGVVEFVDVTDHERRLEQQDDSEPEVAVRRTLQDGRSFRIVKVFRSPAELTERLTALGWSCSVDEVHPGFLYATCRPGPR
Test: in vitro O-methylation
Format: biochemical
Settings: SAM as methyl donor; Pfs present

`CC(=O)N(O)CCCP(=O)(O)O` [FR-900098] was tested, and the “in vitro O-methylation” value was “These four phosphonates were used as the basis; each was methylated by DhpI”.
